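Method: 48-hour compound exposure of cells in 96-well plates, five concentrations, linear interpolation of endpoints. GI50: concentration for 50% inhibition of growth. The concentration for full growth arrest is given as TGI.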
What was measured:
Assay in all cases: NCI tumour cell line growth inhibition, 48 h
CCRF-CEM leukemia = test system: CCRF-CEM leukemia
COLO 205 colon = test system: COLO 205 colon
HCT-15 colon = test system: HCT-15 colon
K-562 leukemia = test system: K-562 leukemia
OVCAR-5 ovarian = test system: OVCAR-5 ovarian
SNB-75 CNS = test system: SNB-75 CNS
SR leukemia = test system: SR leukemia
UACC-62 melanoma = test system: UACC-62 melanoma

Structure (SMILES) | TGI (CCRF-CEM leukemia) [µM] | TGI (COLO 205 colon) [µM] | TGI (HCT-15 colon) [µM] | TGI (K-562 leukemia) [µM] | TGI (OVCAR-5 ovarian) [µM] | TGI (SNB-75 CNS) [µM] | TGI (SR leukemia) [µM] | TGI (UACC-62 melanoma) [µM] | GI50 (CCRF-CEM leukemia) [µM] | GI50 (COLO 205 colon) [µM] | GI50 (HCT-15 colon) [µM] | GI50 (K-562 leukemia) [µM] | GI50 (OVCAR-5 ovarian) [µM] | GI50 (SNB-75 CNS) [µM] | GI50 (UACC-62 melanoma) [µM] | GI50 (SR leukemia) [µM]
Cc1cccc(C(C)O)n1 (stereo not drawn) | > 100 | > 100 | > 100 | > 100 | > 100 | > 100 | > 100 | > 100 | – | – | – | – | – | – | – | –
O=c1c2cc(Br)ccc2oc2ccc(Br)cc12 | > 100 | > 100 | > 100 | > 100 | > 100 | > 100 | – | > 100 | – | – | – | – | – | – | – | –
O=C1N=C2c3c(sc4c3CCCC4)N=CN2C1N=Nc1ccc(Cl)cc1 (stereo not drawn) | 87.9 | 39.3 | > 100 | 87.1 | > 100 | > 100 | – | 47.1 | 13.8 | 10.7 | 37.2 | 5.13 | 22.6 | > 100 | 16.7 | –
CC1CCC2(OC1)OC1CC3C4CC=C5CC(OC6OC(CO)C(OC7OC(C)C(OC8OC(C)C(O)C(O)C8O)C(O)C7O)C(O)C6OC6OC(C)C(O)C(O)C6O)CCC5(C)C4CCC3(C)C1C2C (stereo not drawn) | – | 3.06 | 2.92 | – | 2.39 | 1.64 | – | 1.51 | – | – | – | – | – | – | – | –
CNC(=O)c1cc(Oc2ccc3nc(NC(=O)Nc4ccc(Cl)c(Cl)c4)sc3c2)ccn1 | > 100 | > 100 | > 100 | > 100 | – | 3.61 | > 100 | 7.76 | > 100 | 4.25 | 3.71 | > 100 | – | 1.73 | 2.32 | 6.47
CC1(C)OC2C(CO)OC(n3ccc(=O)[nH]c3=O)C2O1 (stereo not drawn) | > 100 | > 100 | > 100 | > 100 | > 100 | – | > 100 | > 100 | – | – | – | – | – | – | – | –
COc1n[n+]([O-])c(C)cc1[N+](=O)[O-] | – | – | 13.9 | – | 35.9 | – | 31.2 | 23.7 | – | – | 2.74 | – | 19.6 | – | 10.7 | 11.1
c1ccc(-c2nc(Nc3ccc(-c4nc5ccccc5[nH]4)cc3)nc(N3CCOCC3)n2)cc1 | 3.12 | 3.13 | – | 0.959 | 4.02 | 3.15 | 0.555 | 3.48 | 0.545 | 1.41 | – | 0.295 | 2.16 | 1.63 | 1.66 | 0.125
COc1ccc(-c2ccc(/C=N/n3cn[nH]c3=S)o2)c([N+](=O)[O-])c1 | 75.3 | > 100 | > 100 | 36.9 | > 100 | – | – | > 100 | 26.1 | 45.6 | 26 | 16.9 | 97.1 | – | 41.1 | –
COc1ccc(Cl)cc1N1C(=O)C(Cl)=C(Nc2cccc(O)c2)C1=O | 43.8 | 57.1 | 29.1 | 46.2 | 94.4 | – | 54.5 | 27.9 | 14.5 | 21.6 | 14.4 | 18.5 | 28.7 | – | 12.3 | 13.8
